Test results: ChEMBL document CHEMBL5291721, “A preclinical secondary pharmacology resource illuminates target-adverse drug reaction associations of marketed drugs” (Nat Commun, 2023)

What was measured:
[1] = target: Gamma-aminobutyric acid receptor subunit alpha-1 (Rattus norvegicus, UniProt P62813); assay type: functional
[2] = target: T1, Prostaglandin G/H synthase 1 (Rattus norvegicus, UniProt Q63921); assay type: functional
T1 sequence (Q63921 whole entry): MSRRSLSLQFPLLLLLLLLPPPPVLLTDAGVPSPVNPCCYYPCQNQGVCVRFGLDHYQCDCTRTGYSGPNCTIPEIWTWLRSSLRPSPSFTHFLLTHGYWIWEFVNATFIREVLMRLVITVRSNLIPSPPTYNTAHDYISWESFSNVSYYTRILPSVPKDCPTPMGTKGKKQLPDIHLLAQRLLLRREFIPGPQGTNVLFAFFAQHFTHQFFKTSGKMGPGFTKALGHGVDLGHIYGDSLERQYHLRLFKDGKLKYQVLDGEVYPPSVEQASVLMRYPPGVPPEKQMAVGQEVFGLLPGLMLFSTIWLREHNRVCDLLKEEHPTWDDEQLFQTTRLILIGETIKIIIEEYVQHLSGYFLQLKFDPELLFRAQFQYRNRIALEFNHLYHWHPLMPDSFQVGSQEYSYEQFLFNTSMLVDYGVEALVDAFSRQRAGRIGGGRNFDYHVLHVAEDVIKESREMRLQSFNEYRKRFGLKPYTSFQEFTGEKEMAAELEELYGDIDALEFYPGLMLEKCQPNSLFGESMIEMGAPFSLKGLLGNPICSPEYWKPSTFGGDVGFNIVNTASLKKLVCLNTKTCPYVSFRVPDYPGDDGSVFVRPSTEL

[3] = target: T2, Alpha-1A adrenergic receptor (Homo sapiens, UniProt P35348); assay type: functional, cell-based
T2 sequence (P35348 whole entry): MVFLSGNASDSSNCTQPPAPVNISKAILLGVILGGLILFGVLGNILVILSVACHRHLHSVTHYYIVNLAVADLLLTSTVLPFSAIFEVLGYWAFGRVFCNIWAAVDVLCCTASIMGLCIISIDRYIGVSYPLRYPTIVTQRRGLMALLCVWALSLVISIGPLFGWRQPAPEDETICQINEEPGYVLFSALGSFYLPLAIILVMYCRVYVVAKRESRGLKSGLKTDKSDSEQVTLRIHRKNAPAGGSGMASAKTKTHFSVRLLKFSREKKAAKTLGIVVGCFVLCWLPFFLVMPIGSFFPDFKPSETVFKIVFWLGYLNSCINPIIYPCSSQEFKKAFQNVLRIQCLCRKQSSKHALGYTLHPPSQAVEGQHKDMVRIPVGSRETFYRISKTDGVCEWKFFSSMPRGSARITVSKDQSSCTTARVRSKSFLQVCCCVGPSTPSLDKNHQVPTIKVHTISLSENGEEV

Thromboxane A2 receptor = target: T3, Thromboxane A2 receptor (Homo sapiens, UniProt P21731)
T3 sequence (P21731 whole entry): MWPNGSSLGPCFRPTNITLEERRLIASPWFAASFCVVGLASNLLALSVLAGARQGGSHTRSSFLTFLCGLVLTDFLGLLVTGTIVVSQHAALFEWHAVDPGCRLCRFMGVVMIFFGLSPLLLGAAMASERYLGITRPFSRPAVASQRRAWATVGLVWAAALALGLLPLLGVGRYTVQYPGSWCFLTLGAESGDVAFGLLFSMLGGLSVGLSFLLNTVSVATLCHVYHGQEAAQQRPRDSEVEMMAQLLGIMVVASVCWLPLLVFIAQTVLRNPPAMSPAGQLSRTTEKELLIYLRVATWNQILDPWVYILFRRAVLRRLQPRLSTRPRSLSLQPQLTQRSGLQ

[4] = target: T4, Equilibrative nucleoside transporter 1 (Homo sapiens, UniProt Q99808)
T4 sequence (Q99808 whole entry): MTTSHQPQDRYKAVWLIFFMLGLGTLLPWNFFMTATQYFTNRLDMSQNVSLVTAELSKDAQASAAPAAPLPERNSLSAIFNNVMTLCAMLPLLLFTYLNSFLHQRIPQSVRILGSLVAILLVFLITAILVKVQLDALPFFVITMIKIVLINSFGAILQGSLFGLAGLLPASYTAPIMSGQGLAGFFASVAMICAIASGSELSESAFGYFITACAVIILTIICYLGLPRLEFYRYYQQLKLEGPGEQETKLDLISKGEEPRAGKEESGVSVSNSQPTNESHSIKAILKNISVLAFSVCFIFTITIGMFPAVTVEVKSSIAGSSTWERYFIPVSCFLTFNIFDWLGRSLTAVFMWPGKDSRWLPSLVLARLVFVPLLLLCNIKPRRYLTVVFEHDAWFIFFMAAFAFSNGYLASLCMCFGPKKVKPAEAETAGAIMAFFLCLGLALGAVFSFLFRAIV

[5] = target: Growth hormone secretagogue receptor type 1 (Homo sapiens, UniProt Q92847)
Chain of Growth hormone secretagogue receptor type 1 (Q92847 whole entry): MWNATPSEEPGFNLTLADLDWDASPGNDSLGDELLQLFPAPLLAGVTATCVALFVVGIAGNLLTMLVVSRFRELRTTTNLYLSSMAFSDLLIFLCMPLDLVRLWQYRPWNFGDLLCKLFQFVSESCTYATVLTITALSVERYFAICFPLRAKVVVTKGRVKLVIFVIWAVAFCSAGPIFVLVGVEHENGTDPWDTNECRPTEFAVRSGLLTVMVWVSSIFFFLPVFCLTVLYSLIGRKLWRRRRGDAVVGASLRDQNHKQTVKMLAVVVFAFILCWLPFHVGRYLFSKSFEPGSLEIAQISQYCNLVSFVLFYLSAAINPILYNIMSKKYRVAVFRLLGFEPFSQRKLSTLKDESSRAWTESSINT

Motilin receptor = Motilin receptor (Homo sapiens, UniProt O43193)
Chain of Motilin receptor (O43193 whole entry): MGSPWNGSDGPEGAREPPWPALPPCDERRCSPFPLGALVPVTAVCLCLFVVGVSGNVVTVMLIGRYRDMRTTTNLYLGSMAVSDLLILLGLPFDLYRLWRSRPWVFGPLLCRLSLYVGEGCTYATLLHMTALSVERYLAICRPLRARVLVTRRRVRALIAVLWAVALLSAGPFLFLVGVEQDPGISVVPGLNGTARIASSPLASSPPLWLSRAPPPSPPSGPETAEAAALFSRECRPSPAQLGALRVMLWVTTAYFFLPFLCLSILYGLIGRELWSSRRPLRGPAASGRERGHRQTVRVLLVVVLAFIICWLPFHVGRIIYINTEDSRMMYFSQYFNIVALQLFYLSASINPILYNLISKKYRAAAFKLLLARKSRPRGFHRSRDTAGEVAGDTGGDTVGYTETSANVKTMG

Melanocortin receptor 3 = Melanocortin receptor 3 (Homo sapiens, UniProt P41968)
Chain of Melanocortin receptor 3 (P41968 whole entry): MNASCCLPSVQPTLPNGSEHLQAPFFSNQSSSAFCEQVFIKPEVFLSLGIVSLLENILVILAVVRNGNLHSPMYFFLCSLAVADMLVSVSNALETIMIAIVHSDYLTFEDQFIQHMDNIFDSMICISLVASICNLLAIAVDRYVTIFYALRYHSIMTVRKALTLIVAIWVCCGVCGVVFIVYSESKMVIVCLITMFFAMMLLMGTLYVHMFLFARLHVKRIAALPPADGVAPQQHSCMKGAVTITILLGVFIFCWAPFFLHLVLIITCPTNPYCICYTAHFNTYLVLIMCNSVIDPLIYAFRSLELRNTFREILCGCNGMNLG

[6] = target: T5, 5-hydroxytryptamine receptor 3A (Homo sapiens, UniProt P46098); assay type: functional
T5 sequence (P46098 whole entry): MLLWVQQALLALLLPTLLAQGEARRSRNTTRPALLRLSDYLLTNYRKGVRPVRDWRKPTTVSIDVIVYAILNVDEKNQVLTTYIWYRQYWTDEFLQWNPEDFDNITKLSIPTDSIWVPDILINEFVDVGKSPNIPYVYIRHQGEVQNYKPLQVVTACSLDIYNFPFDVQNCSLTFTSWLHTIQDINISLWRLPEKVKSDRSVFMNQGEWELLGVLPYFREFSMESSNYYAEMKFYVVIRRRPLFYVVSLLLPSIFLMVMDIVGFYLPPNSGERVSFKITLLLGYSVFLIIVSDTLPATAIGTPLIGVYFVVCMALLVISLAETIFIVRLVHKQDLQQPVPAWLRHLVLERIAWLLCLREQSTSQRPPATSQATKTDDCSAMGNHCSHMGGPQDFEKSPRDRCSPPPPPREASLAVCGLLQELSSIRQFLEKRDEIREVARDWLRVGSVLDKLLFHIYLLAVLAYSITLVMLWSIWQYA
Further: assay procedure not described here.

Chain of Gamma-aminobutyric acid receptor subunit alpha-1 (P62813 whole entry): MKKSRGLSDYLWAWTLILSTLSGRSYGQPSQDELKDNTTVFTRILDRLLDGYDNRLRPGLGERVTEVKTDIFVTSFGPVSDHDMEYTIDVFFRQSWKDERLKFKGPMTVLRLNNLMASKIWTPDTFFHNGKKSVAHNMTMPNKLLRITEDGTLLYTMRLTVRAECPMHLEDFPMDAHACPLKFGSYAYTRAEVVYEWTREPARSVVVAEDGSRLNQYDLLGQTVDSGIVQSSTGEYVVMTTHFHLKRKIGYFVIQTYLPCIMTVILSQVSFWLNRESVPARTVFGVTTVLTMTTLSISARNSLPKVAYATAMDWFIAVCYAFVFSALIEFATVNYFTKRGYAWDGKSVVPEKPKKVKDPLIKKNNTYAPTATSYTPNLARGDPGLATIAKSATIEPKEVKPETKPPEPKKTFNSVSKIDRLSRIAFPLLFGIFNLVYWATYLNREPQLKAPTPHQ

| SMILES | AC50 [1] [µM] | AC50 [2] [µM] | AC50 [3] [µM] | AC50 (Thromboxane A2 receptor) [µM] | AC50 [4] [µM] | AC50 [5] [µM] | AC50 (Motilin receptor) [µM] | AC50 (Melanocortin receptor 3) [µM] | AC50 [6] [µM] |
| --- | --- | --- | --- | --- | --- | --- | --- | --- | --- |
| Oc1cc(O)c(Cl)cn1 | > 30 | > 30 | > 30 | > 30 | > 30 | > 30 | > 30 | > 30 | > 30 |
| CC(C)N(CCCCOCC(=O)O)c1cnc(-c2ccccc2)c(-c2ccccc2)n1 | > 30 | > 30 | > 30 | 28 | > 30 | > 30 | > 30 | > 30 | > 30 |
| C[N+]12CCC(CC1)C(OC(=O)C(O)(c1ccccc1)c1ccccc1)C2 (centres undefined) | > 30 | > 30 | > 30 | > 30 |  | > 30 | > 30 | > 30 | > 30 |
| CC(=O)c1ccc(S(=O)(=O)NC(=O)NC2CCCCC2)cc1 [ACETOHEXAMIDE] | > 10 | > 10 | > 30 | > 10 | > 10 | > 10 | > 10 | > 10 | > 30 |
| COc1cc(C)c(/C=C/C(C)=C/C=C/C(C)=C/C(=O)O)c(C)c1C [ACITRETIN] | > 10 | 0.517 | > 30 | > 10 | > 10 | > 10 | > 10 | > 10 | > 30 |
| Cc1cc(=O)n(-c2ccccc2)n1C [ANTIPYRINE] | > 10 | > 30 | > 30 | > 30 | > 30 | > 30 | > 10 | > 30 | > 30 |
| O=C(CCCN1CCC(O)(c2ccc(Br)cc2)CC1)c1ccc(F)cc1 [BROMPERIDOL] | > 30 | > 30 | > 30 | > 30 | > 30 | 6.9 | > 30 | > 30 | > 30 |
| Clc1ccc(CCC(Cn2ccnc2)Sc2c(Cl)cccc2Cl)cc1 (centres undefined) [BUTOCONAZOLE] | > 30 | 14 | > 30 | > 30 | > 30 | > 30 | > 30 | > 30 | > 30 |
| CCOC(=O)c1ncn2c1CN(C)C(=O)c1cc(F)ccc1-2 [FLUMAZENIL] |  | > 30 | > 30 | > 30 | > 30 | > 30 | > 30 | > 30 | > 30 |
| CN1CCN=C(c2ccccc2)c2cc(Cl)ccc21 [MEDAZEPAM] | 2.1 | 16 | > 30 | > 30 |  | > 30 | > 30 | > 30 | > 30 |
| O=c1[nH]c2ccccc2n1CCCN1CCN(C(c2ccccc2)c2ccccc2)CC1 [OXATOMIDE] | > 30 | > 30 | > 30 | > 30 |  | 8.8 | 12 | > 30 | > 30 |
| C[C@]12C/C(=C/O)C(=O)C[C@@H]1CC[C@@H]1[C@@H]2CC[C@@]2(C)[C@H]1CC[C@]2(C)O [OXYMETHOLONE] | > 30 | 19 | > 30 | > 30 |  | > 30 | > 30 | > 30 | > 30 |
| CCN1CCCC1CNC(=O)c1cc(S(=O)(=O)CC)ccc1OC (centres undefined) [SULTOPRIDE] | > 30 | > 30 | > 30 | > 30 |  | > 30 | > 30 | > 30 | > 30 |
| CC(C)(C)NCC(O)c1ccccc1Cl (centres undefined) [TULOBUTEROL] | > 30 | > 30 | > 30 | > 30 |  | > 30 | > 30 | > 30 | > 30 |
